Results on ten compounds are retold here after US10160755B2 (Plexxikon Inc., priority 2015, dated 2018).

The assay deals with c-Kit (Homo sapiens, UniProt P10721). The assay is described as follows: c-Kit biochemical assay (per US 2007/0032519). An outline of the steps: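 Biochemical kinase inhibition run per US 2007/0032519; values reported as binned IC50 ranges (0.0001–1 μM, 1–10 μM, 10–200 μM).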
Chain of c-Kit (P10721 26-976): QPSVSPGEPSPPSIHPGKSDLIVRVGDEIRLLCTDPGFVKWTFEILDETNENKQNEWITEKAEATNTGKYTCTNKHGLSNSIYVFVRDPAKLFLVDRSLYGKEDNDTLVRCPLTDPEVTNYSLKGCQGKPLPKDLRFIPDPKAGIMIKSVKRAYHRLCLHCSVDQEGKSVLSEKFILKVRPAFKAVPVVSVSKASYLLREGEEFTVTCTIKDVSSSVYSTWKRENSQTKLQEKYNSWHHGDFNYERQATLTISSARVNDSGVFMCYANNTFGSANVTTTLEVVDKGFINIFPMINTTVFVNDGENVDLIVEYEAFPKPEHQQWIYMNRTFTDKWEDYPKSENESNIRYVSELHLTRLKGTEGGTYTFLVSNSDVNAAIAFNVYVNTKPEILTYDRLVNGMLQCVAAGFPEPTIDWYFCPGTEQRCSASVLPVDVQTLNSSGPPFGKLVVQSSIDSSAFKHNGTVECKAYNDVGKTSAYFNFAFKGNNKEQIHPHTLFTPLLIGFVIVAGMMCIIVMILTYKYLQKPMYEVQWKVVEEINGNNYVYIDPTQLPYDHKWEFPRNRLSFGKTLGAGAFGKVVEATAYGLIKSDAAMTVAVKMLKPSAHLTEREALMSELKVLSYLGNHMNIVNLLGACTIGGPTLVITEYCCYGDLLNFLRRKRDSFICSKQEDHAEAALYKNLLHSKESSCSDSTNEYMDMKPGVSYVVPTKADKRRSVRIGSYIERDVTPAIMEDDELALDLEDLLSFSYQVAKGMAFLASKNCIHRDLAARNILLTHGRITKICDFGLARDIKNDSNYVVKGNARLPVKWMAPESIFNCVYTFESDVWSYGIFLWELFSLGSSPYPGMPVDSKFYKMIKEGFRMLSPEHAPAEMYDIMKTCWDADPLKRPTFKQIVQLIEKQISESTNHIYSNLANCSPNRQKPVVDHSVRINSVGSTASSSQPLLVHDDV

Take `COc1cnc2[nH]cc(-c3ccc4ncn(-c5ccccc5)c4c3)c2c1` [P-068, 5-methoxy-3-(3-phenylbenzimidazol-5-yl)-1H-pyrrolo[2,3-b]pyridine]: the IC50 lay within 10 to 200 µM. For the compound `CC(C)(C)n1cnc2ccc(-c3c[nH]c4ncc(-c5ccnc(C#N)c5)nc34)cc21` [P-301, 4-[7-(3-tert-butylbenzimidazol-5-yl)-5H-pyrrolo[2,3-b]pyrazin-2-yl]pyridine-2-carbonitrile], the IC50 fell in the range of 10 to 200 µM. Consider `COc1cnc2[nH]cc(-c3ccc4ncn(C(C)(C)C)c4c3)c2c1` [P-074, 1-tert-butyl-6-(5-methoxy-1H-pyrrolo[2,3-b]pyridin-3-yl)benzimidazole], for which the IC50 was 1 to 10 µM. For `COc1cnc2[nH]cc(-c3ccc4ncn(C5CCC5)c4c3)c2c1` [P-061, 1-cyclobutyl-6-(5-methoxy-1H-pyrrolo[2,3-b]pyridin-3-yl)benzimidazole] the value was 1 to 10 µM. For `Cc1ccc(-c2cnc3[nH]cc(-c4ccc5ncn(C(C)(C)C)c5c4)c3n2)cn1` [P-388, 7-(3-tert-butylbenzimidazol-5-yl)-2-(6-methyl-3-pyridyl)-5H-pyrrolo[2,3-b]pyrazine] the value was 0.0001 to 1 µM.

With `CC(C)(C)n1cnc2ccc(-c3c[nH]c4ncc(-c5cnc(F)c(F)c5)nc34)cc21` [P-390, 7-(3-tert-butylbenzimidazol-5-yl)-2-(5,6-difluoro-3-pyridyl)-5H-pyrrolo[2,3-b]pyrazine], the IC50 lay in the range of 10 to 200 µM. Turning to `COc1ncc(-c2cnc3[nH]cc(-c4ccc5ncn(C(C)(C)C)c5c4)c3n2)cc1C#N` [P-405, 5-[7-(3-tert-butylbenzimidazol-5-yl)-5H-pyrrolo[2,3-b]pyrazin-2-yl]-2-methoxy-pyridine-3-carbonitrile], the IC50 lay in the range of 10 to 200 µM. Regarding `CC(C)(C)n1cnc2ccc(-c3c[nH]c4ncc(-c5cnc(O)nc5)nc34)cc21` [P-363, 5-[7-(3-tert-butylbenzimidazol-5-yl)-5H-pyrrolo[2,3-b]pyrazin-2-yl]pyrimidin-2-ol], the IC50 fell in the range of 1 to 10 µM.

`CC(C)(C)n1cnc2ccc(-c3c[nH]c4ncc(-c5cnc(C#N)nc5)nc34)cc21` [P-352, 5-[7-(3-tert-butylbenzimidazol-5-yl)-5H-pyrrolo[2,3-b]pyrazin-2-yl]pyrimidine-2-carbonitrile]: the IC50 lay within 10 to 200 µM.

In turn, `CC(C)(O)c1ncc(-c2cnc3[nH]cc(-c4ccc5ncn(C(C)(C)C)c5c4)c3n2)cn1` [P-380, 2-[5-[7-(3-tert-butylbenzimidazol-5-yl)-5H-pyrrolo[2,3-b]pyrazin-2-yl]pyrimidin-2-yl]propan-2-ol] yielded an IC50 of 1 to 10 µM.
